The values below are quoted from earlier work in patent publication US20240082165A1, “METHODS AND COMPOSITIONS FOR PRECISION RELEASE OF PROBIOTICS TO IMPROVE HUMAN HEALTH” (SEED HEALTH INC., priority 2021, published 2024).

For data set [1] the following is noted: delivered directly in the colon, overweight individuals.
The conditions of data set [2]: synthesized ligand, mice.

`CCC(=O)O` [propionate]: the “energy intake, adiposity, liver lipid, plasma PYY and GLP-1” value in data set [1] is “reduced energy intake, adiposity, and lipid liver content, and increased plasma levels of peptide YY (PYY) and glucagon-like peptide 1 (GLP-1)”.

Regarding M-tri-Lys, in data set [2], the protection from colitis result was “protected mice from colitis in a NOD2-dependent but MyD88-independent manner”.
